Data reported in US20230149562A1 (priority 2020, published 2023).

What was measured:
293T cells = assay: In vitro SEAP expression via QuantiBlue assay, DNA nanoparticles; type: cell-based; details: 24 hours post-treatment
Method: To test the ability of these nanoparticles to express SEAP in vitro, 293T cells were treated with nanoparticles. Each well of a 96 well dish of 293 Ts was treated with 10 μL (approximately 0.25 μg) of each formulation product diluted into a final volume of 200 μL with a 1:1 Optimem:PBS mix. The nontreated wells had 200 μL of 50/50 PBS/OptiMEM. Twenty four hours post-treatment or transfection, conditioned media from each culture was collected. Media was analyzed using the QuantiBlue assay (InvivoGen). 180 μL QuantiBlue reagent was combined with 50 μL of media from wells. Readings were taken after 40 minutes by measuring absorbance at 650 nm as directed by the manufacturer's protocol. For the no treatment Negative Control, 50 μL of media from a well not treated with nanoparticles was added to 180 μL QuantiBlue Reagent. These samples were treated the same way as all other samples in all steps of the assay.
FIG. 11 illustrates in vitro SEAP expression of nanoparticle formulations with modified dendrimers used to treat 293T cells.

[1] = system: Influenza A virus (PR/8/34); assay: Hemagglutinin Inhibition Assay (HAI) on vaccinated animal sera
Method: HAI tests were performed on vaccinated animal sera according to the standard recommended WHO protocol [World Health Organization. […] Sera were treated with receptor destroying enzyme (Denka Seiken Co. Ltd, Tokyo, Japan) at 37° C. overnight then heat inactivated for 30 minutes at 56° C. After cooling down to RT, those serum samples were mixed with 2 volume of 25% suspension of turkey red blood cells (RBC, Rockland Immunochemicals) and incubated at room temperature for 2 hours followed by centrifugation to remove RBC. The treated sera, now considered to be at a 1:10 dilution, were serially diluted and incubated with 4 HA units of inactivated Influenza A virus (PR/8/34, Virusys #IAV210) for 30 minutes at room temperature. An equal volume of 0.5% turkey RBC was added to each well and incubated for 30 minutes at room temperature.

| SMILES | in vitro SEAP expression (293T cells) | average HI titer ([1]; week 4, after prime vaccination, 5 μg nanoparticle vaccine, HA mRNA) | average HI titer ([1]; week 5, one week after boost immunization, 5 μg) |
| --- | --- | --- | --- |
| CCCCCCCCCCCCCCCCC(=O)NCCCN(C)CCCNC(=O)OCC(C)(COC(=O)NCCCN(C)CCCNC(=O)CCCCCCCCCCCCCCCC)C(=O)OCC(CC)(COC(=O)C(C)(COC(=O)NCCCN(C)CCCNC(=O)CCCCCCCCCCCCCCCC)COC(=O)NCCCN(C)CCCNC(=O)CCCCCCCCCCCCCCCC)COC(=O)C(C)(COC(=O)NCCCN(C)CCCNC(=O)CCCCCCCCCCCCCCCC)COC(=O)NCCCN(C)CCCNC(=O)CCCCCCCCCCCCCCCC [PE-Heptadecanoic] | resulted in SEAP expression | – | – |
| CCCCCCCC/C=C\CCCCCCCC(=O)NCCCN(C)CCCNC(=O)OCC(C)(COC(=O)NCCCN(C)CCCNC(=O)CCCCCCC/C=C\CCCCCCCC)C(=O)OCC(CC)(COC(=O)C(C)(COC(=O)NCCCN(C)CCCNC(=O)CCCCCCC/C=C\CCCCCCCC)COC(=O)NCCCN(C)CCCNC(=O)CCCCCCC/C=C\CCCCCCCC)COC(=O)C(C)(COC(=O)NCCCN(C)CCCNC(=O)CCCCCCC/C=C\CCCCCCCC)COC(=O)NCCCN(C)CCCNC(=O)CCCCCCC/C=C\CCCCCCCC [PE-Oleic] | resulted in SEAP expression | 40 | 192 |
